Values joined by “and” are separate entries in the source; they are usually repeats but may differ in a detail not shown here. Equal entries are not always repeated. “Also recorded” adds a separate entry of the source. Where two headings read alike, the source gives them in different places. Bridge positions count the residues as written; N and C are the ends. Square brackets hold non-standard residues; d marks the D form. Triazole bridges read from a SMILES are 1,4-linked. Ends that are not written are not given here. Peptide text beside a SMILES is read from it. * marks the point of attachment. Biotin = O=C1N[C@H]2[C@H](CS[C@H]2CCCCC(=O)*)N1; PEG10 = NCCOCCOCCOCCOCCOCCOCCOCCOCCOCCOCCC(=O)O; Lys(N3) = [N-]=[N+]=NCCCC[C@H](N)C(=O)O; Pra = C#CC[C@H](N)C(=O)O

The nature of series [1]: Isocratic point, elution from C18 prep-scale column. The class given is physicochemical. The settings on record: elution from C18 column. The procedure:
PCC compounds were purified on a Waters Autopurification system, which isolated compounds based on MS peaks corresponding to protonated [M+1H]^+ and [M+2H]^2+, and/or sodium adducts [M+Na]^+ and [M+2Na]^2+. The isocratic points of PCCs were determined based on the elution of the compound from a C18 prep-scale column. Synthetic epitopes were either purified on the Waters Autopurification System, or by semi-preparative HPLC and then using matrix-assisted laser desorption/ionization mass spectroscopy to identify fractions with the desired m/z ratio. The resulting peptides were lyophilized, the yield determined by mass difference or UV-visible absorbance, and resuspended at a concentration of up to 10 mM peptide in DMSO. Peptides were stored at −80° C. before thawing for each use.

Series [2] addresses full-length recombinant MrkA protein (Klebsiella pneumoniae, UniProt P12267). Type of series: binding. Conditions: [MrkA] 25 nM. The text has this: HPraGly is present before X1 in each peptide and Az4 follows X5 in each peptide.
Series [3] relates to K. pneumoniae cells (strain BAA 1705). As to the kind of experiment: Gentamicin protection assay: phagocytosis and opsonophagocytic killing (OPK) by macrophages. Type of series: cell-based, Klebsiella pneumoniae. The settings on record: for phagocytosis at 1 h, AR-PCC only (no anti-DNP): control samples; for colony counts at 1 h, EPI plus anti-DNP antibody: 5 μM AR-PCC, murine BMDMs. As for the experimental part:
It also tested whether DNP-conjugated EPIs could promote the opsonophagocytic killing (OPK) of K. pneumoniae by macrophages. This was tested by using an OPK assay. Briefly, K. pneumoniae cells were treated with EPI and then anti-DNP antibody before being exposed to macrophages for either 6 or 24 hours. During this incubation period, macrophages that recognize K. pneumoniae cells will phagocytose them, and phagocytosed bacteria will remain viable for up to 6 hours, but within 24 hours are rendered inviable by OPK. Thus, macrophages were isolated after 6 and 24 hours of incubation with K. pneumoniae, lysed them, and plated and grew the lysate, which yielded bacterial colonies that reflect the phagocytosis (at 6 hrs) or OPK (at 24 hrs) of bacteria.
Given that cy(LLFFF)-DNP (SEQ ID NO:5) recruits antibodies to K. pneumoniae surfaces, it was expected that K. pneumoniae opsonized in this manner would be more susceptible to phagocytosis by macrophages. AR-PCC-driven phagocytosis and OPK were quantified by a gentamicin protection assay, as depicted in FIG. 7A. For this assay, K. pneumoniae cells (strain BAA 1705) were treated with cy(LLFFF)-DNP (SEQ ID NO:5), opsonized by anti-DNP antibodies, and then incubated with murine bone-marrow-derived macrophages (BMDMs). BMDMs were subsequently exposed to a solution containing gentamicin, to which K. pneumoniae strain BAA 1705 is susceptible, to kill any extracellular bacteria. Phagocytosed bacteria remain viable inside BMDMs for at least 1 h, yet are rendered inviable after 24 h by OPK (FIG. 13). Macrophages harvested at 1 h and 24 h were lysed and plated to generate bacterial colonies, which were enumerated to quantify phagocytosis and OPK.
Klebsiella pneumoniae BAA1705 was treated with DNP-PCCs followed by incubation with anti-DNP antibody, as described above in the “Cell-Based ELISAs” section. These opsonized bacteria were then used to infect BMDMs at a multiplicity of infection of 50 for 0.5 h at 37° C. Bacteria were then washed by using RPMI 1640 Media and BMDMs were left in cell culture medium containing gentamicin (100 μg/ml). After 1 h and 24 h BMDMs were washed to remove gentamicin and intracellular bacteria were harvested by lysing BMDMs in RPMI media containing 0.2% Triton X 100. Bacterial CFUs were enumerated by plating onto LB agar. Bacterial counts at 1 h indicated the degree of opsonization while those at 24 h served as a measure of microbicidal activity of macrophages. For these measurements, anti-MrkA antibody and K. pneumoniae antiserum were used at dilutions of 5 μg/mL each.

For series [4], the system named is K. pneumoniae (strains BAA 1705 & 2146). Description: Whole-cell ELISA, biotinylated PCC, multidrug-resistant K. pneumoniae. The class given is cell-based, Klebsiella pneumoniae. The settings on record: biotinylated PCC at 5 μM, FIG. 5C. As for the experimental part:
Detection of the binding of biotinylated PCCs to bacterial surface was performed as follows. 10^8 bacteria from a culture grown overnight were used for each test. […] After washing thrice with PBS to remove unbound PCCs, bacteria were incubated with Streptavidin-HRP (1:1000) for 1 h at 37° C. Bacteria were washed thoroughly and the TMB reagent was added until visible coloration was observed. The reaction was quenched using 2N H2SO4 and absorbance was measured at 450 nm.
In general terms: An ELISA detects its analyte on a solid surface through an enzyme-linked reagent.

The test system of series [5] is K. pneumoniae cells (strain BAA 2146). Description: Flow cytometry, recruitment of fluorescent anti-DNP antibodies. The class given is cell-based, Klebsiella pneumoniae. The settings on record: cy(LLFFF)-DNP 1 or 5 μM; cy(HNGPT) 50 μM; plus fluorescent anti-DNP.
Protocol: To test this, cells were incubated with DNP-conjugated EPIs and then fluorescently labeled anti-DNP antibody (Alexafluor488), and subsequently quantified the fluorescence of cells by using flow cytometry.
Cytometry measurements were gated for single cells, and each distribution comprises >18,000 cells.
Cytometry measurements were used to quantify AR-PCC-driven opsonization and opsonophagocytic killing of K. pneumoniae cells. For these measurements, K. pneumoniae cells were cultured in G-CAA medium overnight, washed, incubated with DNP-tagged AR-PCC at a desired concentration, washed, incubated with anti-DNP antibody conjugated with Alexafluor488, washed, then resuspended in PBS media. The samples were stored at 4° C. for 2 d before cytometry measurements were performed. The cytometer was calibrated by using Rainbow fluorescent beads (3.5 μm diameter) 3.5 m from BD (559123), which aided identification of single K. pneumoniae cells in subsequent measurements. Samples were excited with 488 nm light and the fluorescence emission at 530 nm was measured. Sample with no Alexaflour488 stain was used as fluorescent minus one (FMO) control for gating of DNP+ population. FACS data was analyzed on FlowJo v10 software, and the resulting histograms each include fluorescence data from >18,000 cells for strain BAA 2146 (FIG. 4B) and >4,000 cells for strain BAA 1705 (data not shown).

full-length recombinant MrkA protein, sequence (P12267 23-202): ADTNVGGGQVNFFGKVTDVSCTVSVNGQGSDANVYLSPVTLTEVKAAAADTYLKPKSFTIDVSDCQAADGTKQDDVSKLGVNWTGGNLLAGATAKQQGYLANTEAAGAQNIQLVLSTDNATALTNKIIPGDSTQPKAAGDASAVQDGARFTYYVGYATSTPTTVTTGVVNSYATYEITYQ

Consider `CC(C)C[C@@H]1NC(=O)[C@@H](NC(=O)CCOCCOCCOCCOCCOCCOCCOCCOCCOCCOCCNC(=O)[C@H](CCCNC(=N)N)NC(=O)[C@H](CCCNC(=N)N)NC(=O)[C@H](CCCNC(=N)N)NC(=O)[C@H](CCCNC(=N)N)NC(=O)[C@H](CCCNC(=N)N)NC(=O)[C@H](CCCNC(=N)N)NC(=O)CCOCCOCCOCCOCCOCCOCCOCCOCCOCCOCCNC(=O)CCCC[C@@H]2SC[C@@H]3NC(=O)N[C@@H]32)Cc2cn(nn2)CCCC[C@@H](C(N)=O)NC(=O)[C@H](Cc2ccccc2)NC(=O)[C@H](Cc2ccccc2)NC(=O)[C@H](Cc2ccccc2)NC(=O)[C@H](CC(C)C)NC1=O` [compound 17] ({Biotin-PEG10}-RRRRRR[PEG10][Pra]LLFFF[Lys(N3)]-NH2; triazole 8-14), for which the “Isocratic point (%)” value in series [1] is 39.82%. The “Relative affinity (ratio of ELISA signal versus cy(LLFFF))” value in series [2] (ELISA 5) was determined as 1.22.
For `CC(C)C[C@@H]1NC(=O)[C@@H](NC(=O)CCOCCOCCOCCOCCOCCOCCOCCOCCOCCOCCNC(=O)[C@H](CCCNC(=N)N)NC(=O)[C@H](CCCNC(=N)N)NC(=O)[C@H](CCCNC(=N)N)NC(=O)[C@H](CCCNC(=N)N)NC(=O)[C@H](CCCNC(=N)N)NC(=O)[C@H](CCCNC(=N)N)NC(=O)[C@H](CCCNC(=N)N)NC(=O)[C@H](CCCNC(=N)N)NC(=O)[C@H](CCCNC(=N)N)NC(=O)CCOCCOCCOCCOCCOCCOCCOCCOCCOCCOCCNC(=O)CCCC[C@@H]2SC[C@@H]3NC(=O)N[C@@H]32)Cc2cn(nn2)CCCC[C@@H](C(N)=O)NC(=O)[C@H](Cc2ccccc2)NC(=O)[C@H](Cc2ccccc2)NC(=O)[C@H](Cc2ccccc2)NC(=O)[C@H](CC(C)C)NC1=O` [compound 18], in that order: 37.03% and 0.58.
`CC(C)C[C@@H]1NC(=O)[C@H](Cc2c[nH]cn2)NC(=O)[C@@H](NC(=O)CCOCCOCCOCCOCCOCCOCCOCCOCCOCCOCCNC(=O)CCCC[C@@H]2SC[C@@H]3NC(=O)N[C@@H]32)Cc2cn(nn2)CCCC[C@@H](C(N)=O)NC(=O)[C@H](Cc2ccccc2)NC(=O)[C@H](Cc2ccccc2)NC(=O)[C@H](Cc2ccccc2)NC1=O` [compound 19] ({Biotin-PEG10}-[Pra]HLFFF[Lys(N3)]-NH2; triazole 1-7): the “Isocratic point (%)” value in series [1] came out at 47.52%. Further, the “Relative affinity (ratio of ELISA signal versus cy(LLFFF))” value in series [2] (ELISA 6) is given as 0.81.
On to `CC(C)C[C@@H]1NC(=O)[C@H](CC(=O)O)NC(=O)[C@@H](NC(=O)CCOCCOCCOCCOCCOCCOCCOCCOCCOCCOCCNC(=O)CCCC[C@@H]2SC[C@@H]3NC(=O)N[C@@H]32)Cc2cn(nn2)CCCC[C@@H](C(N)=O)NC(=O)[C@H](Cc2ccccc2)NC(=O)[C@H](Cc2ccccc2)NC(=O)[C@H](Cc2ccccc2)NC1=O` [compound 20] ({Biotin-PEG10}-[Pra]DLFFF[Lys(N3)]-NH2; triazole 1-7), for which, in series [1], the “Isocratic point (%)” value is reported as 66.33%. Also, the “Relative affinity (ratio of ELISA signal versus cy(LLFFF))” value in series [2] (ELISA 6) was 0.21.
Take `CC(C)C[C@@H]1NC(=O)[C@@H](NC(=O)CCOCCOCCOCCOCCOCCOCCOCCOCCOCCOCCNC(=O)CCCC[C@@H]2SC[C@@H]3NC(=O)N[C@@H]32)Cc2cn(nn2)CCCC[C@@H](C(N)=O)NC(=O)[C@H](Cc2ccccc2)NC(=O)[C@H](Cc2ccccc2)NC(=O)[C@H](CC(C)C)NC1=O` [compound 21] ({Biotin-PEG10}-[Pra]LLFF[Lys(N3)]-NH2; triazole 1-6): the “Isocratic point (%)” value in series [1] was 64.99%. The “Relative affinity (ratio of ELISA signal versus cy(LLFFF))” value in series [2] (ELISA 6) was 0.14.
For `CC(C)C[C@@H]1NC(=O)[C@@H](NC(=O)CCOCCOCCOCCOCCOCCOCCOCCOCCOCCOCCNC(=O)CCCC[C@@H]2SC[C@@H]3NC(=O)N[C@@H]32)Cc2cn(nn2)CCCC[C@@H](C(N)=O)NC(=O)[C@H](Cc2ccccc2)NC(=O)[C@H](CC(C)C)NC1=O` [compound 22] ({Biotin-PEG10}-[Pra]LLF[Lys(N3)]-NH2; triazole 1-5), in that order: 56.45% and 0.09.
With `NC(=O)[C@@H]1CCCCn2cc(nn2)C[C@H](NC(=O)CCOCCOCCOCCOCCOCCOCCOCCOCCOCCOCCNC(=O)CCCC[C@@H]2SC[C@@H]3NC(=O)N[C@@H]32)C(=O)N[C@@H](Cc2ccccc2)C(=O)N[C@@H](Cc2ccccc2)C(=O)N[C@@H](Cc2ccccc2)C(=O)N1` [compound 23] ({Biotin-PEG10}-[Pra]FFF[Lys(N3)]-NH2; triazole 1-5), in series [1], the “Isocratic point (%)” value is recorded as 60.27%. In addition, the “Relative affinity (ratio of ELISA signal versus cy(LLFFF))” value in series [2] (ELISA 6) came to 0.14.
With “cy(HNGPT) (not fully specified (bridges); printed as cy(HNGPT); also: cyclic, closure not given here) [reference compound]”, in series [3] (6 hrs), the “CFU, DNP-conjugated EPI plus anti-DNP, macrophages harvested at 6 hrs” value is “almost identical CFU count” and the “cell counts, DNP-conjugated EPI only (no antibody), macrophages harvested at 6 hrs” value is listed as ~35,000. For the same compound, in series [4], the “whole-cell ELISA signal, K. pneumoniae BAA 1705 and BAA 2146” value is “comparably lower signal; also recorded: no or minimal binding above baseline”. In series [5], the “fluorescence of cells” value is recorded as “Slightly greater fluorescence”.
With “cy(LLFFA)-DNP (not fully specified (bridges); printed as cy(LLFFA)-DNP; also: DNP label)”, the “phagocytosis at 1 h, DNP-tagged AR-PCC plus anti-DNP (words)” value in series [3] (1 h, FIG. 7B) was “None of these treatments elicited phagocytosis above basal levels”. The “phagocytosis at 1 h, AR-PCC only (no anti-DNP)” value (“phagocytosis … (no anti-DNP)” for short) in series [3] (1 h) is “None of these treatments elicited phagocytosis above basal levels”.
Consider “cy(LLFFF)+R6-DNP (LLFFFRRRRRR; not fully specified (C-terminus); printed as cy(LLFFF)+R6-DNP; also: cyclic over residues 1-5, ring closure not given here)”, for which, in series [3] (1 h), the “colony counts at 1 h, EPI plus anti-DNP antibody” value is 85,000 CFU and the “phagocytosis … (no anti-DNP)” value is listed as “None of these treatments elicited phagocytosis above basal levels”.
Regarding “cy(LLFFF)-DNP (cyclo(LLFFF); also: DNP label)”, in series [3] (1 h), the “colony counts at 1 h, EPI plus anti-DNP antibody” value is 89,000 CFU and 85,000 CFU; the “phagocytosis … (no anti-DNP)” value was “None of these treatments elicited phagocytosis above basal levels”. Also, the “level of phagocytosis lower than K. pneumoniae antiserum and anti-MrkA treatment” value in series [3] (plus anti-DNP, 1 h) was “about 15%”. Moreover, the “fluorescence of cells” value in series [5] was “much higher fluorescence”.

Values taken from US12201679B2, “Epitope-targeted peptide immunostimulants” (priority 2019, dated 2025).
